Laboratory results taken from US20220142995A1, “DUAL ATM AND DNA-PK INHIBITORS FOR USE IN ANTI-TUMOR THERAPY” (XRAD Therapeutics, Inc., priority 2019, published 2022).

Experiments:
Format in all cases: in vivo, mice
[1] = tested on: pDNA-PK/DNA-PK in MDA-231 tumors; assay: Pharmacodynamic assay, pDNA-PK/DNA-PK in MDA-231 tumors
Source text: (§1) Tumor Studies. Female NCr nu/nu mice (Crl:NU(NCr)-Foxn1 nu, Strain 490) were obtained from Charles River at 5-6 weeks of age. All animal procedures used in these studies were approved by the Institutional Animal Care and Use Committee (IACUC) at Duke University.
(§2) FADU or MDA-MB-231 cells were harvested during log phase growth for in vivo implantation. The resuspended cells were washed three times in phosphate buffered saline (PBS) before preparing the working dilution in PBS. FADU cells were diluted to 1×10^7 cells/mL and MDA-MB-231 cells were diluted to 5×10^7 cells/mL. Each mouse was injected subcutaneously in the right flank with 100 μL of the cellular suspension. Tumor growth was monitored until the tumors reached a target volume of at least 100 mm^3, at which point mice were randomly stratified into four treatment groups.
(§3) The vehicle used in this study was 0.5% (Hydroxypropyl)methyl cellulose (HPMC) and 0.2% Tween80 dissolved in deionized water. The pH of the vehicle was adjusted to 7.0-8.0 and the vehicle was stored at 4° C. On each day of in vivo treatment an appropriate mass of test compound was added to the vehicle at room temperature. The mixture was vortexed as necessary to generate a final concentration of 1.6 mg/mL.
(§4) Pharmacodynamic (PD) assays. Tumor studies were performed as follows. Mice bearing FADU or MDA-231 tumors were pre-dosed with vehicle alone or compound 569 alone at 3, 6, and 10 mg/kg. Tumors were then irradiated with 10 Gy 45 min after vehicle or compound 569 administration or left unirradiated (vehicle and compound 569 at 10 mg/kg). Tumors were harvested 1 h post radiation.
(§5) Tissue homogenates for pharmacodynamic analyses were collected and processed as follows. Tumor tissues from FADU or MDA-MB-231 tumors were flash frozen in liquid nitrogen and pulverized on dry ice using a tissue pulverizer. A portion of the tumor powder was transferred into a microtube, followed by addition of 500 μL of RIPA buffer [[…], pH 8.0, 150 mM NaCl, 0.1% SDS, 0.5% sodium deoxycholate, 1% IGEPAL® CA-630 (Sigma, 18896)]. To 10 ml of RIPA buffer, 2 tablets each of Protease inhibitor and Phosphatase inhibitor (Roche, #04693159001 & #04906837001), 200 μL of 0.1 M PMSF and 160 μL of Aprotinin, (Sigma, A6279) were added. The suspension was homogenized on ice with a pellet pestle motor (KONTES) and incubated on ice for 30 minutes. Cell lysates were centrifuged at 13,200 rpm for 15 min at 4° C. and supernatants were transferred to a new tube and analyzed for protein concentration with a BCA kit (Pierce, 23227), followed by immunoblotting.

[2] = tested on: pDNA-PK/DNA-PK in FADU tumors; assay: Pharmacodynamic assay, pDNA-PK/DNA-PK in FADU tumors; details: for pDNA-PK/DNA-PK: FADU tumors
Source text: as §1, §2, §3, §4, §5

[3] = tested on: pKAP1/KAP1 in FADU tumors; assay: Pharmacodynamic assay, pKAP1/KAP1 in FADU tumors; details: for pKAP1/KAP1: FADU tumors
Source text: as §1, §2, §3, §4, §5

[4] = tested on: pKAP1/KAP1 in MDA-231 tumors; assay: Pharmacodynamic assay, pKAP1/KAP1 in MDA-231 tumors
Source text: as §1, §2, §3, §4, §5

[5] = 10 Gy, 3 mg/kg oral, harvested 1 h post radiation
[6] = 10 Gy, 6 mg/kg oral, harvested 1 h post radiation
[7] = 10 Gy, 10 mg/kg oral, harvested 1 h post radiation

How did the pDNA-PK/DNA-PK [1, 5] turn out when CC(C)NCCOc1ncc(-c2cc3c4c(cnc3cc2F)N(C)C(=O)C42CCC2)cc1NS(C)(=O)=O [Compound 569, N-(5-(7′-Fluoro-3′-methyl-2′-oxo-2′,3′-dihydrospiro[cyclobutane-1,1′-pyrrolo[2,3-c]quinolin]-8′-yl)-2-(2-(isopropylamino)ethoxy)pyridin-3-yl)methanesulfonamide] was run?
The pDNA-PK/DNA-PK was 0.889.

And the pDNA-PK/DNA-PK [1, 6]?
Its pDNA-PK/DNA-PK is 0.670.

And the pDNA-PK/DNA-PK [1, 7]?
Its pDNA-PK/DNA-PK is 0.454.

What about the pDNA-PK/DNA-PK ([1]; no radiation, 10 mg/kg oral) of the same compound?
Its pDNA-PK/DNA-PK is 0.223.

What about the “inhibition of radiation-induced DNA-PK autophosphorylation and KAP1 phosphorylation in tumors” value ([2]; FADU and MDA231 tumors, 10 Gy, 3, 6 and 10 mg/kg oral) of the same compound?
Its value is “dose-dependent inhibition”.

What about the pDNA-PK/DNA-PK [2, 5] of the same compound?
The pDNA-PK/DNA-PK was 0.938.

And the pDNA-PK/DNA-PK [2, 6]?
Its pDNA-PK/DNA-PK is 0.658.

What about the pDNA-PK/DNA-PK [2, 7] of the same compound?
Its pDNA-PK/DNA-PK is 0.476.

And the pDNA-PK/DNA-PK ([2]; no radiation, 10 mg/kg oral)?
The pDNA-PK/DNA-PK was 0.343.

What about the inhibition at 10 mg/kg ([2]; Mus musculus, FADU and MDA231 tumors (FIGS. 4 and 5, Tables 2-5), 10 Gy, 10 mg/kg, read-out: inhibition of tumor levels of radiation-induced autophosphorylation of DNA-PK) of the same compound?
Its inhibition at 10 mg/kg is about 55%.

And the “basal phosphorylation of DNA-PK in tumors” value ([2]; unirradiated tumors, 10 mg/kg)?
Its value is “inhibited”.

What about the pKAP1/KAP1 [3, 5] of the same compound?
Its pKAP1/KAP1 is 0.0903.

And the pKAP1/KAP1 [3, 6]?
The pKAP1/KAP1 was 0.0982.

And the pKAP1/KAP1 [3, 7]?
The pKAP1/KAP1 was 0.156.

What about the pKAP1/KAP1 ([3]; no radiation, 10 mg/kg oral) of the same compound?
The pKAP1/KAP1 was 0.00595.

And the inhibition at 10 mg/kg ([3]; Mus musculus, FADU and MDA231 tumors (FIGS. 4 and 5, Tables 2-5), 10 Gy, 10 mg/kg, read-out: inhibition of tumor levels of radiation-induced phosphorylation of KAP1)?
The inhibition at 10 mg/kg was over 80%.

What about the pKAP1/KAP1 [4, 5] of the same compound?
The pKAP1/KAP1 was 0.327.

What about the pKAP1/KAP1 [4, 6] of the same compound?
Its pKAP1/KAP1 is 0.0130.

And the pKAP1/KAP1 [4, 7]?
Its pKAP1/KAP1 is 0.00901.

And the pKAP1/KAP1 ([4]; no radiation, 10 mg/kg oral)?
The pKAP1/KAP1 was −0.00319.
